This note sets out measurements from ChEMBL document CHEMBL4014283, “Structural insights of SmKDAC8 inhibitors: Targeting Schistosoma epigenetics through a combined structure-based 3D QSAR, in vitro and synthesis strategy” (Bioorg Med Chem, 2017).

In data set [1] the target is T1, Histone deacetylase 8 (Homo sapiens, UniProt Q9BY41).
T1 sequence (Q9BY41 whole entry): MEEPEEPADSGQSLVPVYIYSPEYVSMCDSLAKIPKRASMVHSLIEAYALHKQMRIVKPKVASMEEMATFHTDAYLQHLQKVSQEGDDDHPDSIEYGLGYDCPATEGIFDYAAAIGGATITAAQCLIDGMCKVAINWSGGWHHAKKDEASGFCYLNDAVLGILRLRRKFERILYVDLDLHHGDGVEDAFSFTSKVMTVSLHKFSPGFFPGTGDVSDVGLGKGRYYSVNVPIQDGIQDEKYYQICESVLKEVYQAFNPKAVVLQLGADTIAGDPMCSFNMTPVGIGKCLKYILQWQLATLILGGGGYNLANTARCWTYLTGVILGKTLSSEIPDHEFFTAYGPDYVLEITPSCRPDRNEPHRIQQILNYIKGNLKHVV
The experiment in a line: (§1) Inhibition of full length human C-terminal His-tagged KDAC8 expressed in baculovirus expression system at 30 uM using (FAM)-labeled peptide as substrate after 60 mins by microfluidic assay relative to control. The settings on record: 1 h, 30 µM.

Data set [2] deals with T2, Protein deacetylase HDAC6 (Homo sapiens, UniProt Q9UBN7).
T2 sequence (Q9UBN7 whole entry): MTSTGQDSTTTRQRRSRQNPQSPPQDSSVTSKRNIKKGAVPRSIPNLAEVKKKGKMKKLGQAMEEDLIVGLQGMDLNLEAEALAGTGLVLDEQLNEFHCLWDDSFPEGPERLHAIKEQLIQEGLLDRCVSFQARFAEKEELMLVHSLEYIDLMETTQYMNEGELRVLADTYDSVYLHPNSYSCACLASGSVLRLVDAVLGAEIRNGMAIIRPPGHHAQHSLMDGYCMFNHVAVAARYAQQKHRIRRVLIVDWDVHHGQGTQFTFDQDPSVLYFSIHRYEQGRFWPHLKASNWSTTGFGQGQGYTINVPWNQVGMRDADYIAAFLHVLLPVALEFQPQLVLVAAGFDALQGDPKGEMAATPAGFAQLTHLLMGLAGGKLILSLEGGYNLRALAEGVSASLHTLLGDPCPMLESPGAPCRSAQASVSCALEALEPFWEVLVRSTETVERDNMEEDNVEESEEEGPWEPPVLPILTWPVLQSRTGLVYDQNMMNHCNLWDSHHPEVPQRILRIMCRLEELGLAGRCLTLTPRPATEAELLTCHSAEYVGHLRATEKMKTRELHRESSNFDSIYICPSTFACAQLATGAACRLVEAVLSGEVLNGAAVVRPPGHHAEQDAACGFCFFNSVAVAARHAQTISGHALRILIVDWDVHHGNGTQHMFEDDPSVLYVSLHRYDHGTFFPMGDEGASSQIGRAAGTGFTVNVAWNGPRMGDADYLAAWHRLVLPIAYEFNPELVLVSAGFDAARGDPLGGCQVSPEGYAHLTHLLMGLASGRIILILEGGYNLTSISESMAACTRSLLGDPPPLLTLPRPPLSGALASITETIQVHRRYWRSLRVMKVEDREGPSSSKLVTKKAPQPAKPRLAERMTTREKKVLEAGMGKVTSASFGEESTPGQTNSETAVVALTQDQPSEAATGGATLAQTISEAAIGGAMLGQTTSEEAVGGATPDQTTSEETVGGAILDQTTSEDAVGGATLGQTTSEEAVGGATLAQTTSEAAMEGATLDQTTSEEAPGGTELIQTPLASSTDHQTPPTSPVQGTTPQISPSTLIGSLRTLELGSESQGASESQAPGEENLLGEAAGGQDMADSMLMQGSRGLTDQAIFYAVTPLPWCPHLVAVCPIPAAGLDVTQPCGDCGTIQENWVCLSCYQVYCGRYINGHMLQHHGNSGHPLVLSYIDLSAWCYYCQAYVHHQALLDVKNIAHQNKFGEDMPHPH
As to the kind of experiment: Inhibition of human KDAC6 expressed in baculovirus expression system at 30 uM using FITC-Histone 4 acetylated peptide as substrate after 60 mins by microfluidic assay. The settings on record: 1 h, 30 µM.

The target of data set [3] is KDAC3/NCOR2 (histone deacetylase 3/nuclear receptor corepressor 2 complex) (Homo sapiens, UniProt O15379). As to the kind of experiment: (§2) Inhibition of full length human C-terminal His-tagged KDAC3/N-terminal GST-tagged human NCOR2 (395 to 489 residues) expressed in baculovirus expression system at 30 uM using FITC-p53 acetylated peptide as substrate after 60 mins by microfluidic assay. The note with it: probe FITC-p53 acetylated peptide.

Another data set addresses Histone deacetylase 1 (Homo sapiens, UniProt Q13547). As to the kind of experiment: Inhibition of full length human C-terminal FLAG/His-tagged KDAC1 expressed in baculovirus expression system at 30 uM using substrate A after 60 mins by microfluidic assay relative to control. The note with it: 1 h, 30 µM.
Data set [4] deals with T3, Histone deacetylase 8 (Schistosoma mansoni) (UniProt A5H660).
T3 sequence (whole entry): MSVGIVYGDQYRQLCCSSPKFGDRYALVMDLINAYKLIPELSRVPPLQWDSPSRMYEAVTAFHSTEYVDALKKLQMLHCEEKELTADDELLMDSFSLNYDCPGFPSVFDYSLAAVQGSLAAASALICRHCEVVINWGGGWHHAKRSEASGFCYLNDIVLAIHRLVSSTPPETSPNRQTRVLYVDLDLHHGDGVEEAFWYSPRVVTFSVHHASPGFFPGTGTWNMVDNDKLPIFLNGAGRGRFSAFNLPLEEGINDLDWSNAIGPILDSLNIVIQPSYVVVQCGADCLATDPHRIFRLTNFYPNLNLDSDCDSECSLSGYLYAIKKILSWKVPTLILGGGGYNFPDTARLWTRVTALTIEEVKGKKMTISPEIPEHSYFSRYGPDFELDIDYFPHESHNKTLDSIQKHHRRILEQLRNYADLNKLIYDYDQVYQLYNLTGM
As to the kind of experiment: Inhibition of Schistosoma mansoni KDAC8 at 30 uM using (FAM)-labeled peptide as substrate after 60 mins by microfluidic assay.

For data set [5], the target named is Histone deacetylase 3/Nuclear receptor corepressor 2 (HDAC3/NCoR2) (Homo sapiens, UniProt O15379+Q9Y618). The description is as §2. The settings on record: 1 h, 30 µM.
Data set [6] has as its target T4, KDAC8 (histone deacetylase 8) (Homo sapiens, UniProt Q9BY41).
T4 sequence (Q9BY41 whole entry): T1 sequence (Q9BY41 whole entry)
The data set is described as §1. The note with it: probe (FAM)-labeled peptide.

Data set [7] addresses T5, Histone deacetylase 8 (Schistosoma mansoni, UniProt A5H660).
T5 sequence (A5H660 whole entry): T3 sequence (whole entry)
The experiment in a line: Inhibition of Schistosoma mansoni KDAC8 using (FAM)-labeled peptide as substrate after 60 mins by microfluidic assay. The note with it: read-out: IC50.

Active and inactive are the calls of the source. The rule behind the calls is not given here.

Histone deacetylase 1, sequence (Q13547 whole entry): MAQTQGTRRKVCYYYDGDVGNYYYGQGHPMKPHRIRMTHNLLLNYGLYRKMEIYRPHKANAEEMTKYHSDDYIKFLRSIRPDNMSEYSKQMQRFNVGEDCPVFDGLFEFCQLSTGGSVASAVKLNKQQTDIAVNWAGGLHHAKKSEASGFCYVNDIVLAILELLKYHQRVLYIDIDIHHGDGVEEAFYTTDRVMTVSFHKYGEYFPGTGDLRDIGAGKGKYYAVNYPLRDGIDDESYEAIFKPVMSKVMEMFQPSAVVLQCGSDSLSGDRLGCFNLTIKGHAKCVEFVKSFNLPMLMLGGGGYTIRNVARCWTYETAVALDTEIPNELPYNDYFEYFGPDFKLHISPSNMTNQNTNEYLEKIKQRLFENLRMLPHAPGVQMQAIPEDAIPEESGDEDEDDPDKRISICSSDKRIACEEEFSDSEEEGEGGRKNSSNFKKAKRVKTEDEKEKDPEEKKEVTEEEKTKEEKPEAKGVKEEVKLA
KDAC3/NCOR2 (histone deacetylase 3/nuclear receptor corepressor 2 complex), sequence (O15379 whole entry, the tested form may be a part): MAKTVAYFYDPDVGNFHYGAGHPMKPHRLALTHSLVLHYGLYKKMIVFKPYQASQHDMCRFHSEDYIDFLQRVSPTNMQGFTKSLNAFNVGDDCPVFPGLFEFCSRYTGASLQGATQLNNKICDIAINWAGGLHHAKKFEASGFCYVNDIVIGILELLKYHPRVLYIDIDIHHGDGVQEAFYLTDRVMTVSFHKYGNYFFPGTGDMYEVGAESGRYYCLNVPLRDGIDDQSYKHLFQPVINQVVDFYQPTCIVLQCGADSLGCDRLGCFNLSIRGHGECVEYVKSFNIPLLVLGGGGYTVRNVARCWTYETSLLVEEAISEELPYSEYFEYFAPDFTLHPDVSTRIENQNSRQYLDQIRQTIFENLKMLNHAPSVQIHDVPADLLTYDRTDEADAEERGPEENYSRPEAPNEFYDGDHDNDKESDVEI
KDAC3/NCOR2 (histone deacetylase 3/nuclear receptor corepressor 2 complex), sequence (Q9Y618 whole entry, further chain, the tested form may be a part): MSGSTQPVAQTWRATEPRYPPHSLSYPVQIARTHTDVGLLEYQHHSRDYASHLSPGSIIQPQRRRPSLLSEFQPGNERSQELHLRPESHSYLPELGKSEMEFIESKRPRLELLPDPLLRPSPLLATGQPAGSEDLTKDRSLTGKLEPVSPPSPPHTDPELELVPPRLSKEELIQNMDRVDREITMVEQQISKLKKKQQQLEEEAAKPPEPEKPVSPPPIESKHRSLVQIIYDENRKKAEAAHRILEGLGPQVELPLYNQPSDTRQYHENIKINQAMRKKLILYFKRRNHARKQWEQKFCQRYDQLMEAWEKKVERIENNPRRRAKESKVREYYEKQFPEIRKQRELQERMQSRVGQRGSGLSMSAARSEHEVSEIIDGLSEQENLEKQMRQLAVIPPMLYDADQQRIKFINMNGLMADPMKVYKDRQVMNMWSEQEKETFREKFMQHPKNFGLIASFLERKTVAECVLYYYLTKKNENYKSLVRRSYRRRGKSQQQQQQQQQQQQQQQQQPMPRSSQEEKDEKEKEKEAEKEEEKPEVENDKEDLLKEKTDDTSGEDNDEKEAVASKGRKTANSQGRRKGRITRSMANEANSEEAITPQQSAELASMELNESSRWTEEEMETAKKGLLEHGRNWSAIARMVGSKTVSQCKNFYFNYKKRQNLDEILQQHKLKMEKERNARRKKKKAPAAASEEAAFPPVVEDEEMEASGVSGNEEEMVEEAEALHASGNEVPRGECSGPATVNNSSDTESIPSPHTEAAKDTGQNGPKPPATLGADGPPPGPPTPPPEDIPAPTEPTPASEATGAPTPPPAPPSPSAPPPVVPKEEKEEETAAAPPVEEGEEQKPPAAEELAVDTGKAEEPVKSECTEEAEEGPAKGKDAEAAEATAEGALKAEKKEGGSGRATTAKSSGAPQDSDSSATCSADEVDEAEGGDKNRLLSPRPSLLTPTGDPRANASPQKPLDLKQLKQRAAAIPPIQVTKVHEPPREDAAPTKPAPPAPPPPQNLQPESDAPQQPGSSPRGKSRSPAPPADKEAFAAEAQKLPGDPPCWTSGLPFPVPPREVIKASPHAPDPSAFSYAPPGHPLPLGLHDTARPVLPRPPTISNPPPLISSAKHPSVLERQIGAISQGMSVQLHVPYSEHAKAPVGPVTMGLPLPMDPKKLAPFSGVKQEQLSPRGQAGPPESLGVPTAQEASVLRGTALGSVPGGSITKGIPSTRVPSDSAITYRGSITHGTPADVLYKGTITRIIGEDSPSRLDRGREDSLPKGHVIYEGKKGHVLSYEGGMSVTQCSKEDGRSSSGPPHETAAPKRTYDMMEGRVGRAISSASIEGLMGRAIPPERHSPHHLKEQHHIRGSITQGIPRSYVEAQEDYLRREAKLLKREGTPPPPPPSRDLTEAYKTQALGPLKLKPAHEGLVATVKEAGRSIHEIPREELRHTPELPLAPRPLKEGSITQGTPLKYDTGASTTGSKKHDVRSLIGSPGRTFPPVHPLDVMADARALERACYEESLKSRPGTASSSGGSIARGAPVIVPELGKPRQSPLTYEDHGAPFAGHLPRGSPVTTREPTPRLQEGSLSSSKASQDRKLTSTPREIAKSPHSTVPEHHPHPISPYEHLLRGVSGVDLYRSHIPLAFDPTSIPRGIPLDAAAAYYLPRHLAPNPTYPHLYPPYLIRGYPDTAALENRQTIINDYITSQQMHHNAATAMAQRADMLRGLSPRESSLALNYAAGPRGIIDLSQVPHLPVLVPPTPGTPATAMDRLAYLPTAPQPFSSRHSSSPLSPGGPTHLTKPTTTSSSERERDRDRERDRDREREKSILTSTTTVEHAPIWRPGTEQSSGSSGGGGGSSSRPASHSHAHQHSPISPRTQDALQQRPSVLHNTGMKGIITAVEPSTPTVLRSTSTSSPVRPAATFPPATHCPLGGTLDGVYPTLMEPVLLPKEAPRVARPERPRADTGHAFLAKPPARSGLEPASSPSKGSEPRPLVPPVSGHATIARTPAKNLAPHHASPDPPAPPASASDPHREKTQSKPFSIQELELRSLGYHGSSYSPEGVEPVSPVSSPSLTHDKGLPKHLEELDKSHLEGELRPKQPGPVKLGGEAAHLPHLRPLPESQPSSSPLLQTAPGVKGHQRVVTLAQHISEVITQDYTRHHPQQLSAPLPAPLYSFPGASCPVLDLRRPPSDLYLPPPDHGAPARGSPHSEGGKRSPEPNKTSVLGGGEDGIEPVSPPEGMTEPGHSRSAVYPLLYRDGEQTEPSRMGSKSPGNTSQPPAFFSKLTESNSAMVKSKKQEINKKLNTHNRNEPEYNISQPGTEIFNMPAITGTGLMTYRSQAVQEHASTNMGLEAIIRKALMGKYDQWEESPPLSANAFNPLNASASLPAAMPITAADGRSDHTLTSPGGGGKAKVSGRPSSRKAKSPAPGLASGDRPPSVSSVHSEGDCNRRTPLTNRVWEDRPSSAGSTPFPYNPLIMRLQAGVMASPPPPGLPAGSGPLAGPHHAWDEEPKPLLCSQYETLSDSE
Histone deacetylase 3/Nuclear receptor corepressor 2 (HDAC3/NCoR2), sequence (O15379 whole entry): as the sequence (O15379 whole entry, the tested form may be a part) above
Histone deacetylase 3/Nuclear receptor corepressor 2 (HDAC3/NCoR2), sequence (Q9Y618 whole entry): as the sequence (Q9Y618 whole entry, further chain, the tested form may be a part) above

By inhibition is commonly meant the change of the read-out against control, counted positive when it falls. `CCOC(=O)C1=C(N)N=C(N)C1=Nc1ccc(OC)cc1`: the “inhibition (INH)” value (on Histone deacetylase 8 [1]; in data set [2]; against Histone deacetylase 1) was “Not Active” each time. The inhibition at 1 h, 30 µM in data set [3] came to 7%. For the same compound, the inhibition result in data set [4] is “inactive”.

`Cc1ccc(Nc2nnc(S)s2)cc1F`: the “inhibition (INH)” value (against Histone deacetylase 8 [1]; in data set [2]; against Histone deacetylase 1) was “Not Active” in each case. The inhibition at 1 h, 30 µM in data set [3] is 2%. The inhibition in data set [4] was determined as 8%.

Consider `O=C(OCC(O)COC(=O)c1cccnc1)c1cccnc1`, for which the “inhibition (INH)” value (against Histone deacetylase 8 [1]; in data set [2]; in data set [5]; at Histone deacetylase 1) was “Not Active” in each case. Moreover, the inhibition entry in data set [4] is “inactive”.

`CCOP(=O)(OCC)/C(C#N)=C/c1ccc([N+](=O)[O-])cc1`: the “inhibition (INH)” value (on Histone deacetylase 8 [1]; in data set [2]; in data set [5]; on Histone deacetylase 1) was “Not Active” in each case. In addition, in data set [4], the inhibition worked out at 2%.

Turning to `Nc1ccccc1Sc1cc(Cl)nnc1Cl`, the “inhibition (INH)” value (at Histone deacetylase 8 [1]; in data set [2]; in data set [5]; at Histone deacetylase 1) was “Not Active” throughout. Moreover, the inhibition result in data set [4] is “inactive”.

As to `NS(=O)(=O)c1ccc(Nc2ccccc2)c([N+](=O)[O-])c1`, the “inhibition (INH)” value (at Histone deacetylase 8 [1]; in data set [2]; against Histone deacetylase 1) was “Not Active” throughout. In data set [3], this compound had an inhibition at 1 h, 30 µM of 1%. In data set [4], the inhibition worked out at 12%.

With `Cc1cc(-n2cnc3c(O)ncnc32)ccc1N`, the “inhibition (INH)” value (on Histone deacetylase 8 [1]; in data set [2]; in data set [5]; on Histone deacetylase 1) was “Not Active” each time. In data set [4], this compound displayed an inhibition of 1%.

As to `Cc1cc(NC(=O)Nc2cc(F)ccc2F)no1`, the “inhibition (INH)” value (on Histone deacetylase 8 [1]; in data set [2]; in data set [5]; on Histone deacetylase 1) was “Not Active” throughout. For the same compound, the inhibition entry in data set [4] was “inactive”.

Take `Clc1ccc(Nc2nnc(-c3ccc4c(c3)OCO4)o2)cc1`: the “inhibition (INH)” value (at Histone deacetylase 8 [1]; in data set [2]; in data set [5]; against Histone deacetylase 1) was “Not Active” each time. Further, the inhibition in data set [4] worked out at 10%.

Regarding `C=CCN=C(S)Nc1cccc([N+](=O)[O-])c1`, the “inhibition (INH)” value (against Histone deacetylase 8 [1]; in data set [2]; at Histone deacetylase 1) was “Not Active” throughout. The inhibition at 1 h, 30 µM in data set [3] worked out at 3%. The compound further returned an inhibition in data set [4] of 2%.

As for `NC(=O)c1ccccc1OCC(=O)Nc1ccc(Cl)c(Cl)c1`, the “inhibition (INH)” value (at Histone deacetylase 8 [1]; in data set [2]; against Histone deacetylase 1) was “Not Active” in each case. In addition, in data set [3], the inhibition at 1 h, 30 µM stood at 6%. The compound also gave an inhibition in data set [4] of 2%.

As for `Cc1c(COC(=O)N(C)C)c(COC(=O)NC(C)C)c2n1CS(=O)(=O)C2`, the inhibition at 1 h, 30 µM in data set [6] was found to be 7%; in data set [3], 3%. The “inhibition (INH)” value (in data set [2]; against Histone deacetylase 1) was “Not Active” in each case. For the same compound, the inhibition result in data set [4] is “inactive”.

Consider `O=C(NCc1ccco1)Nc1cccc([N+](=O)[O-])c1`, for which the inhibition at 1 h, 30 µM in data set [6] and in data set [3] was 7% in each case. The “inhibition (INH)” value (in data set [2]; at Histone deacetylase 1) was “Not Active” throughout. In addition, the inhibition in data set [4] is 16%.

In the case of `COC(=O)C(=Cc1ccccc1[N+](=O)[O-])C(=O)OC`, the “inhibition (INH)” value (at Histone deacetylase 8 [1]; in data set [2]; at Histone deacetylase 1) was “Not Active” each time. Moreover, in data set [3], the inhibition at 1 h, 30 µM was found to be 3%. This compound had an inhibition in data set [4] of 3%.

On to `O=C(O)c1ccccc1C(=O)Nc1ccccc1[N+](=O)[O-]`, for which the “inhibition (INH)” value (against Histone deacetylase 8 [1]; in data set [2]; in data set [5]; against Histone deacetylase 1) was “Not Active” throughout. In data set [4], this compound displayed an inhibition of 6%.

Regarding `CC(C)NCC1CCc2cc(CO)c([N+](=O)[O-])cc2N1` (stereo unspecified) [OXAMNIQUINE], the “inhibition (INH)” value (against Histone deacetylase 8 [1]; in data set [2]; in data set [5]; against Histone deacetylase 1) was “Not Active” throughout. The inhibition result in data set [4] was “inactive”.

As to `CC(=O)OCCn1c([N+](=O)[O-])cnc1/C=[N+](\[O-])C1CCCCC1`, the “inhibition (INH)” value (against Histone deacetylase 8 [1]; in data set [2]; in data set [5]; against Histone deacetylase 1) was “Not Active” in each case. The inhibition in data set [4] is 12%.

On to `O=C1c2ccccc2C2=C3C(O)=NN=C3CCN12`, for which the inhibition at 1 h, 30 µM in data set [6] turned out to be 5%; in data set [3] it was 1%. Further, the “inhibition (INH)” value (in data set [2]; against Histone deacetylase 1) was “Not Active” in each case. The inhibition result in data set [4] is “inactive”.

In general, IC50 refers to the midpoint of a concentration-inhibition curve. As for `CC(C)(C)OC(=O)n1c(C[C@@H]2N=C(c3ccccc3)c3ccccc3N(CCCCC(=O)O)C2=O)cc2ccccc21`, the IC50 at Histone deacetylase 8 [7] was > 30 µM. Moreover, in data set [4], the inhibition amounted to 0%.

Turning to `C[C@H](OCc1ccccc1)[C@@H]1N=C(c2ccccc2)c2ccccc2N(CCCCC(=O)O)C1=O`, the 50% inhibitory concentration (IC50) on Histone deacetylase 8 [7] was > 30 µM. The compound further had an inhibition in data set [4] of 0%.

As to `O=C(CCCNC(=O)CC[C@@H]1N=C(c2ccccc2)c2ccccc2NC1=O)NO`, the IC50 on Histone deacetylase 8 [7] stood at 6.53 µM. Also, the inhibition in data set [4] was determined as 81.7%.
